Test results as given in patent publication US10072026B2, “Crystalline form of 3-((1R,3s,5S)-3-((7-((5-methyl-1H-pyrazol-3-yl)amino)-1,6-naphthyridin-5-yl)amino)-8-azabicyclo[3.2.1]octan-8-yl)propanenitrile” (priority 2015, dated 2018).
Like-named read-outs stand apart in the source and are kept apart here.

How the values were obtained:
JAK1 = JAK1 (Homo sapiens (Human), UniProt P23458); assay: LanthaScreen JAK biochemical assay (JAK1)
JAK2 = JAK2 (Homo sapiens (Human), UniProt O60674); assay: LanthaScreen JAK biochemical assay (JAK2); conditions: for Ki: read-out: JAK 2 (pKi) (converted)
[1] = tested on: IL-4 induced STAT6 phosphorylation in THP-1 human monocytic cells; assay: Cellular JAK potency assay, THP-1
[2] = THP-1 cells, IL-4 induced STAT6 phosphorylation
[3] = IL-4 induced STAT6 phosphorylation, THP-1 cells
[4] = read-out: JAK 1 (pKi) (converted)
[5] = Homo sapiens, THP-1, read-out: THP-1 IL4 pIC50 (converted)

Sequence of JAK1 (P23458 whole entry): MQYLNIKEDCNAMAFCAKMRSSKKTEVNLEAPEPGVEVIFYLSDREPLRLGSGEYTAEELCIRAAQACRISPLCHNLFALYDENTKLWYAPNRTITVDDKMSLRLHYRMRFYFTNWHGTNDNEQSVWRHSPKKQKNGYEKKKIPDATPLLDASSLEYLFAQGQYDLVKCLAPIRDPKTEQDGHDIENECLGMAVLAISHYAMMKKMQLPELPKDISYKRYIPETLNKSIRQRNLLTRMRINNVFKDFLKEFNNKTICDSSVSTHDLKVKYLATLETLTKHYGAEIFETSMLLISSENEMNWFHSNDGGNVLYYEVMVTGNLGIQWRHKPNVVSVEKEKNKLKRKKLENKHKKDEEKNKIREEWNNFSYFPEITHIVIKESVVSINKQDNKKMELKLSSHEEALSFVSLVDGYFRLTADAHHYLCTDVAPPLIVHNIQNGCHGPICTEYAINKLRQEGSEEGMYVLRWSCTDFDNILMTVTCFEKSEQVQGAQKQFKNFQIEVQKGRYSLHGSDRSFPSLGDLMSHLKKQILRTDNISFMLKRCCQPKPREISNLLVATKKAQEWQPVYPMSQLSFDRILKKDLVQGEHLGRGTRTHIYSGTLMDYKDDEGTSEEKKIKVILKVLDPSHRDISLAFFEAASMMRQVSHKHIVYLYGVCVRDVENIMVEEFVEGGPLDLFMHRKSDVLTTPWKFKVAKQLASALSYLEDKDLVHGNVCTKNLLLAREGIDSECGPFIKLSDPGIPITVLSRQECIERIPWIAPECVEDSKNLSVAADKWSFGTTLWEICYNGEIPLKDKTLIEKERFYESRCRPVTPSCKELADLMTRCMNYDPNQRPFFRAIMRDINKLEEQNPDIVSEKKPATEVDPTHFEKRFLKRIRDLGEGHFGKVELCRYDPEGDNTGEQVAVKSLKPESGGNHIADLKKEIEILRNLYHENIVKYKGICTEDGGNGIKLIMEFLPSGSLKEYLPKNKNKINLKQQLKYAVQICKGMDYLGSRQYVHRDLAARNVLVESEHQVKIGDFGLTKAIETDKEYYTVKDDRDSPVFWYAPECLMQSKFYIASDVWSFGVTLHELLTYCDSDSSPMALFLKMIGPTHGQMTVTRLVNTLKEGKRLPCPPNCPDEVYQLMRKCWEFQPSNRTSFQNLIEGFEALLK
Sequence of JAK2 (O60674 whole entry): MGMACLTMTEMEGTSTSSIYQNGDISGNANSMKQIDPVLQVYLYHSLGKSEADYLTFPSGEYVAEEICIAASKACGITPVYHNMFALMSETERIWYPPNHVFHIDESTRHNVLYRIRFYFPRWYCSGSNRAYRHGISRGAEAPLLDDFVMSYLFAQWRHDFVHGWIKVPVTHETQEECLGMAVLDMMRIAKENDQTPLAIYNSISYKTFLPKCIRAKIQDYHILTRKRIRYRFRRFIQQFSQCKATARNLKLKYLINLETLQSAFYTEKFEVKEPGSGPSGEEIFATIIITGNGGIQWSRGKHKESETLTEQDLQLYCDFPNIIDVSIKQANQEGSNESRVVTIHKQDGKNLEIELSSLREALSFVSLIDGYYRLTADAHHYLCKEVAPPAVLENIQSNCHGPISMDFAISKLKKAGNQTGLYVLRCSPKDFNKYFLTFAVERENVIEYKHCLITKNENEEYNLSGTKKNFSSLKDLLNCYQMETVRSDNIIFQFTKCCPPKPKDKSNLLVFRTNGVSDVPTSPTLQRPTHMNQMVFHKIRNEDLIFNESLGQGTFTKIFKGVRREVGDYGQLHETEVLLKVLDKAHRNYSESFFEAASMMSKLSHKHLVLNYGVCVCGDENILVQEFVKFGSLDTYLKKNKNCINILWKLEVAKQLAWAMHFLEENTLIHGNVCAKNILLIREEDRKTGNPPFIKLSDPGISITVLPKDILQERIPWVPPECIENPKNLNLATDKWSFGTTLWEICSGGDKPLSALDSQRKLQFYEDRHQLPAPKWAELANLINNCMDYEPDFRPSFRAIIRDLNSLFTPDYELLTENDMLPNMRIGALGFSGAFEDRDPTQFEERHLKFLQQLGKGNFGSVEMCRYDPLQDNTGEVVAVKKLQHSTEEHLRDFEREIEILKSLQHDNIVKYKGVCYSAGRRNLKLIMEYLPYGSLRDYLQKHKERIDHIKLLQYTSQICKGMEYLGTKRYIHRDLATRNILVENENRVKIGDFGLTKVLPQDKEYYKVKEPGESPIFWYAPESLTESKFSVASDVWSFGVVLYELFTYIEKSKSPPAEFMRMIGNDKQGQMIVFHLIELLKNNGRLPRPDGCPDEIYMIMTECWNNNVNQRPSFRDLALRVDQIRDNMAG

Compound	JAK 1 (pKi) (JAK1)	JAK 2 (pKi) (JAK2)	THP-1 IL4 pIC50 [1, 2]	THP-1 IL4 pIC50 [1, 3]	Ki (JAK1; [4]) [nM]	Ki (JAK2) [nM]	IC50 [1, 5] [nM]	Ki (JAK1) [nM]
COC(=O)c1cnc2cc(Nc3cc(C)[nH]n3)nc(N[C@@H]3C[C@H]4CC[C@@H](C3)N4CCC(F)(F)F)c2c1 [Example 6-45]	B (B represents a pKi value between 9 and 10 (Ki between 1 nM and 0.1 nM))	B (B represents a pKi value between 9 and 10 (Ki between 1 nM and 0.1 nM))	B (B represents a pEC50 value between 6.7 and 7.5 (EC50 between 200 nM and 32 nM))					
COc1cnc2cc(Nc3cc(C)[nH]n3)nc(N[C@@H]3C[C@H]4CC[C@@H](C3)N4CCCC#N)c2c1 [Example 6-12]	B (B represents a pKi value between 9 and 10 (Ki between 1 nM and 0.1 nM))	B (B represents a pKi value between 9 and 10 (Ki between 1 nM and 0.1 nM))	B (B represents a pEC50 value between 6.7 and 7.5 (EC50 between 200 nM and 32 nM))					
COC(=O)c1cnc2cc(Nc3cc(C)[nH]n3)nc(N[C@@H]3C[C@H]4CC[C@@H](C3)N4CCC#N)c2c1 [Example 6-32]	A (A represents a pKi value≥10 (Ki≤0.1 nM))	A (A represents a pKi value≥10 (Ki≤0.1 nM))	A (A represents a pEC50 value≥7.5 (EC50≤32 nM))					
Cc1cc(Nc2cc3ncccc3c(N[C@@H]3C[C@H]4CC[C@@H](C3)N4CC(=O)OC(C)C)n2)n[nH]1 [Example 1-4]	B (B represents a pKi value between 9 and 10 (Ki between 1 nM and 0.1 nM))	B (B represents a pKi value between 9 and 10 (Ki between 1 nM and 0.1 nM))		B (B represents a pEC50 value between 6.7 and 7.5 (EC50 between 200 nM and 32 nM))				
Cc1cc(Nc2cc3nc(CN4CCN(C)CC4)ccc3c(N[C@@H]3C[C@H]4CC[C@@H](C3)N4S(=O)(=O)c3cncc(F)c3)n2)n[nH]1 [Example 5-40]					0.1 to 1	0.1 to 1	31.6 to 200	
CCOC(=O)N1[C@@H]2CC[C@H]1C[C@H](Nc1nc(Nc3cc(C)[nH]n3)cc3ncccc13)C2 [Example 3-1]					0.1 to 1	0.1 to 1	< 31.6	
Cc1cnc2c(F)c(Nc3cc(C)[nH]n3)nc(N[C@@H]3C[C@H]4CC[C@@H](C3)N4S(C)(=O)=O)c2c1 [Example 8-17]	A (A represents a pKi value≥10 (Ki≤0.1 nM))	A (A represents a pKi value≥10 (Ki≤0.1 nM))	B (B represents a pEC50 value between 6.7 and 7.5 (EC50 between 200 nM and 32 nM))					
Cc1cnc2c(F)c(Nc3cc(C)[nH]n3)nc(N[C@@H]3C[C@H]4CCC[C@@H](C3)N4CCC#N)c2c1 [Example 8-21]	B (B represents a pKi value between 9 and 10 (Ki between 1 nM and 0.1 nM))	B (B represents a pKi value between 9 and 10 (Ki between 1 nM and 0.1 nM))	B (B represents a pEC50 value between 6.7 and 7.5 (EC50 between 200 nM and 32 nM))					
CCC(=O)N1[C@@H]2CCC[C@H]1C[C@H](Nc1nc(Nc3cc(C)[nH]n3)cc3ncccc13)C2 [Example 2-15]	B (B represents a pKi value between 9 and 10 (Ki between 1 nM and 0.1 nM))	B (B represents a pKi value between 9 and 10 (Ki between 1 nM and 0.1 nM))		A (A represents a pEC50 value≥7.5 (EC50≤32 nM))				
Cc1cc(Nc2cc3ncccc3c(N[C@@H]3C[C@H]4CCC[C@@H](C3)N4C[C@H]3CCC(=O)O3)n2)n[nH]1 [Example 1-57]	B (B represents a pKi value between 9 and 10 (Ki between 1 nM and 0.1 nM))	B (B represents a pKi value between 9 and 10 (Ki between 1 nM and 0.1 nM))		B (B represents a pEC50 value between 6.7 and 7.5 (EC50 between 200 nM and 32 nM))				
COC(=O)c1cnc2cc(Nc3cc(C)[nH]n3)nc(N[C@@H]3C[C@H]4CC[C@@H](C3)N4CCF)c2c1 [Example 6-43]	B (B represents a pKi value between 9 and 10 (Ki between 1 nM and 0.1 nM))	B (B represents a pKi value between 9 and 10 (Ki between 1 nM and 0.1 nM))	B (B represents a pEC50 value between 6.7 and 7.5 (EC50 between 200 nM and 32 nM))					
Cc1cc(Nc2cc3ncccc3c(N[C@@H]3C[C@H]4CC[C@@H](C3)N4C(=O)c3cccnc3)n2)n[nH]1 [Example 2-14]						0.1 to 1	> 200	0.1 to 1
Cc1cnc2c(F)c(Nc3cc(C)[nH]n3)nc(N[C@@H]3C[C@H]4CC[C@@H](C3)N4S(=O)(=O)N3CC(C#N)C3)c2c1 [Example 8-19]	B (B represents a pKi value between 9 and 10 (Ki between 1 nM and 0.1 nM))	B (B represents a pKi value between 9 and 10 (Ki between 1 nM and 0.1 nM))	C (C represents a pEC50 value<6.7 (EC50>200 nM))					
Cc1cc(Nc2cc3ncc(S(C)(=O)=O)cc3c(N[C@@H]3C[C@H]4CC[C@@H](C3)N4CCF)n2)n[nH]1 [Example 6-54]	B (B represents a pKi value between 9 and 10 (Ki between 1 nM and 0.1 nM))	B (B represents a pKi value between 9 and 10 (Ki between 1 nM and 0.1 nM))	C (C represents a pEC50 value<6.7 (EC50>200 nM))					
Cc1cc(Nc2cc3ncccc3c(N[C@@H]3C[C@H]4CC[C@@H](C3)N4C(=O)c3ccccc3)n2)n[nH]1 [Example 2-12]					0.1 to 1	0.1 to 1	31.6 to 200	
Cc1cc(Nc2cc3ncccc3c(N[C@@H]3C[C@H]4CCC[C@@H](C3)N4C(=O)OCC(C)C)n2)n[nH]1 [Example 3-7]	B (B represents a pKi value between 9 and 10 (Ki between 1 nM and 0.1 nM))	B (B represents a pKi value between 9 and 10 (Ki between 1 nM and 0.1 nM))		B (B represents a pEC50 value between 6.7 and 7.5 (EC50 between 200 nM and 32 nM))				
Cc1cc(Nc2cc3ncccc3c(N[C@@H]3C[C@H]4CC[C@@H](C3)N4C(=O)Cc3ccccc3)n2)n[nH]1 [Example 2-11]	B (B represents a pKi value between 9 and 10 (Ki between 1 nM and 0.1 nM))	B (B represents a pKi value between 9 and 10 (Ki between 1 nM and 0.1 nM))		B (B represents a pEC50 value between 6.7 and 7.5 (EC50 between 200 nM and 32 nM))				
Cc1cnc2c(F)c(Nc3cc(C)[nH]n3)nc(N[C@@H]3C[C@H]4CC[C@@H](C3)N4CCC#N)c2c1 [Example 8-18]	B (B represents a pKi value between 9 and 10 (Ki between 1 nM and 0.1 nM))	B (B represents a pKi value between 9 and 10 (Ki between 1 nM and 0.1 nM))	B (B represents a pEC50 value between 6.7 and 7.5 (EC50 between 200 nM and 32 nM))					
Cc1cc(Nc2cc3ncccc3c(N[C@@H]3C[C@H]4CC[C@@H](C3)N4S(=O)(=O)C3CNC3)n2)n[nH]1 [Example 4-9]						0.1 to 1	> 200	0.1 to 1
Cc1cc(Nc2cc3ncccc3c(N[C@@H]3C[C@H]4CC[C@@H](C3)N4C(=O)c3ccncc3)n2)n[nH]1 [Example 2-13]					0.1 to 1	0.1 to 1	31.6 to 200	
Cc1ccc(S(=O)(=O)N2[C@@H]3CCC[C@H]2C[C@H](Nc2nc(Nc4cc(C)[nH]n4)cc4ncccc24)C3)cn1 [Example 4-25]	B (B represents a pKi value between 9 and 10 (Ki between 1 nM and 0.1 nM))	B (B represents a pKi value between 9 and 10 (Ki between 1 nM and 0.1 nM))		A (A represents a pEC50 value≥7.5 (EC50≤32 nM))				
